Assay results from the supplement of paper PMC11451515.

Tested on: NOMO1
Test: cell viability relative to DMSO control; higher = less cytotoxic
Details: 48 h
How it was run: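 Three leukemia lines were tested: NOMO1 and SEM at 500 cells/well and P12-Ichikawa at 1000 cells/well. Each was adapted for at least four passages in each medium and seeded in 5 μl in 1536-well plates, and library compounds in DMSO were pin-dosed from 47 μM to 0.79 nM in 11 threefold steps. After 48 h at 37°C, CellTiter-Glo One luminescence was read. Viability is a percentage relative to DMSO wells on each plate, with cell-free wells as background.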

[1] = HPLM + 10% dialyzed FBS, 0.000781 µM
[2] = HPLM + 10% dialyzed FBS, 0.00234 µM
[3] = HPLM + 10% dialyzed FBS, 0.00702 µM
[4] = HPLM + 10% dialyzed FBS, 0.0211 µM
[5] = HPLM + 10% dialyzed FBS, 0.0632 µM
[6] = HPLM + 10% dialyzed FBS, 0.19 µM
[7] = HPLM + 10% dialyzed FBS, 0.569 µM
[8] = HPLM + 10% dialyzed FBS, 1.71 µM
[9] = HPLM + 10% dialyzed FBS, 5.12 µM
[10] = HPLM + 10% dialyzed FBS, 15.4 µM
[11] = HPLM + 10% dialyzed FBS, 46.1 µM
[12] = RPMI 5 mM glucose + 10% FBS, 0.000781 µM
[13] = RPMI 5 mM glucose + 10% FBS, 0.00234 µM
[14] = RPMI 5 mM glucose + 10% FBS, 0.00702 µM
[15] = RPMI 5 mM glucose + 10% FBS, 0.0211 µM
[16] = RPMI 5 mM glucose + 10% FBS, 0.0632 µM
[17] = RPMI 5 mM glucose + 10% FBS, 0.19 µM
[18] = RPMI 5 mM glucose + 10% FBS, 0.569 µM
[19] = RPMI 5 mM glucose + 10% FBS, 1.71 µM
[20] = RPMI 5 mM glucose + 10% FBS, 5.12 µM
[21] = RPMI 5 mM glucose + 10% FBS, 15.4 µM
[22] = RPMI 5 mM glucose + 10% FBS, 46.1 µM
[23] = RPMI 5 mM glucose + 10% dialyzed FBS, 0.000781 µM
[24] = RPMI 5 mM glucose + 10% dialyzed FBS, 0.00234 µM
[25] = RPMI 5 mM glucose + 10% dialyzed FBS, 0.00702 µM
[26] = RPMI 5 mM glucose + 10% dialyzed FBS, 0.0211 µM
[27] = RPMI 5 mM glucose + 10% dialyzed FBS, 0.0632 µM
[28] = RPMI 5 mM glucose + 10% dialyzed FBS, 0.19 µM
[29] = RPMI 5 mM glucose + 10% dialyzed FBS, 0.569 µM
[30] = RPMI 5 mM glucose + 10% dialyzed FBS, 1.71 µM
[31] = RPMI 5 mM glucose + 10% dialyzed FBS, 5.12 µM
[32] = RPMI 5 mM glucose + 10% dialyzed FBS, 15.4 µM
[33] = RPMI 5 mM glucose + 10% dialyzed FBS, 46.1 µM

SMILES | cell viability [1] | cell viability [2] | cell viability [3] | cell viability [4] | cell viability [5] | cell viability [6] | cell viability [7] | cell viability [8] | cell viability [9] | cell viability [10] | cell viability [11] | cell viability [12] | cell viability [13] | cell viability [14] | cell viability [15] | cell viability [16] | cell viability [17] | cell viability [18] | cell viability [19] | cell viability [20] | cell viability [21] | cell viability [22] | cell viability [23] | cell viability [24] | cell viability [25] | cell viability [26] | cell viability [27] | cell viability [28] | cell viability [29] | cell viability [30] | cell viability [31] | cell viability [32] | cell viability [33]
FC(F)(F)C1=CC=C2C(SCCCCCO\C3=C\O\C(CN4CCOCC4)=C/C3=O)=CC=NC2=C1 | 96% | 122% | 144% | 119% | 122% | 139% | 137% | 128% | 131% | 124% | 107% | 116% | 124% | 107% | 103% | 118% | 135% | 118% | 121% | 122% | 112% | 109% | 99.3% | 118% | 105% | 114% | 131% | 112% | 125% | 129% | 114% | 109% | 92.4%
CCOc1cc(/C=C2/C(=O)N(c3ccccc3)N=C2C)cc(Cl)c1OCC(=O)OC | 86.1% | 92.5% | 93% | 93.5% | 84.4% | 95.5% | 101% | 96.3% | 87.5% | 77.6% | 85.1% | 81.8% | 80.8% | 82.1% | 89.2% | 93.6% | 89.5% | 93.3% | 88.4% | 78.4% | 91.8% | 83% | 89.2% | 88.5% | 94.9% | 85.5% | 92.6% | 102% | 85% | 82.8% | 86.7% | 84.6% | 87.5%
C[C@@H](NCc1cc2ccccc2[nH]1)c1cccc2ccccc12 | 88.3% | 82.2% | 91.6% | 90.6% | 94.6% | 95.5% | 91.9% | 95.2% | 97.1% | 92.3% | 100% | 84.3% | 87.5% | 80.1% | 86.1% | 90.5% | 88.1% | 97.4% | 89.8% | 95.5% | 94.5% | 91.8% | 93.6% | 89.8% | 89% | 87.8% | 84.2% | 102% | 102% | 93.7% | 97% | 92.3% | 102%
Cc1ccc(NC(=O)c2cccc(N(C)C)c2)cc1NC(=O)c1ccc(O)cc1 | 127% | 119% | 115% | 121% | 151% | 136% | 146% | 122% | 120% | 136% | 105% | 114% | 110% | 107% | 108% | 113% | 109% | 121% | 118% | 118% | 121% | 106% | 110% | 114% | 115% | 121% | 116% | 110% | 116% | 126% | 138% | 108% | 107%
Cc1cccc(N(C)C(=S)Oc2ccc3ccccc3c2)c1 | 110% | 120% | 116% | 124% | 117% | 112% | 123% | 121% | 100% | 92% | 110% | 99.9% | 94.2% | 106% | 107% | 108% | 98.8% | 97.2% | 97.3% | 94.5% | 103% | 99.6% | 98.1% | 105% | 99.8% | 112% | 99.8% | 95.2% | 107% | 110% | 104% | 101% | 106%
CC1=CC=C2\N=C/3N(CC[C@@]3(O)C(=O)C2=C1)C4=CC=CC=C4 | 102% | 103% | 96.2% | 104% | 104% | 95.4% | 105% | 88.3% | 74% | 88.9% | 91.3% | 82% | 88.2% | 93.6% | 85.4% | 79.3% | 79.5% | 84% | 84.4% | 75.8% | 92.2% | 85.9% | 94.5% | 95.1% | 87.5% | 86.7% | 101% | 92% | 86.7% | 88.9% | 79.2% | 84.9% | 82.9%
Cn1cnc(-c2cc3nccc(Oc4ccc(NC(=S)NC(=O)Cc5ccccc5)cc4F)c3s2)c1 | 72.5% | 93.2% | 84.1% | 92.4% | 99.9% | 97.1% | 91.3% | 86% | 77.9% | 62% | 25.8% | 77.3% | 88.3% | 77.4% | 86.2% | 89.8% | 96.4% | 89.6% | 87.5% | 82.2% | 85.2% | 20.5% | 84% | 81.2% | 68.1% | 86% | 93.6% | 101% | 83% | 90% | 86.1% | 88.1% | 26.7%
C/C(=C\c1csc(C)n1)[C@@H]1C[C@@H]2O[C@@H]2CCC[C@H](C)[C@H](O)[C@@H](C)C(=O)C(C)(C)[C@@H](O)CC(=O)O1 | 33.3% | 25.8% | 27.8% | 28.4% | 29.2% | 31.6% | 30.1% | 30.5% | 34.8% | 34% | 30.7% | 27.2% | 19.5% | 17.9% | 20.3% | 18.1% | 18% | 17.8% | 18.7% | 18.1% | 22.8% | 19.8% | 84.5% | 20.9% | 20% | 21.6% | 23.3% | 20.9% | 21.7% | 25.8% | 24.2% | 31.1% | 23.3%
